Test results reported in PMC6364417, “Kinase inhibitor library screening identifies synergistic drug combinations effective in sensitive and resistant melanoma cells” (Journal of Experimental & Clinical Cancer Research : CR, 2019).

Assays:
Assay in all cases: Kinase inhibitor library screening, PrestoBlue cell viability, 1 or 10 μM, 72 h
[1] = test system: 501Mel-GP cells (Dabrafenib-resistant)
[2] = test system: A375-XP cells (Vemurafenib-resistant)
A375 cells (parental) = test system: A375 cells (parental)
[3] = test system: 501Mel-XP cells (Vemurafenib-resistant)
IGR37 cells (parental) = test system: IGR37 cells (parental)
[4] = test system: IGR37-XP cells (Vemurafenib-resistant)
501Mel cells (parental) = test system: 501Mel cells (parental)
Method in brief: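 Kinase inhibitors added at two fixed concentrations; 72 h exposure; PrestoBlue readout; % viability vs untreated; n ≥ 2 per line.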

[5] = test system: A375-GP cells (Dabrafenib-resistant)
[6] = test system: IGR37-GP cells (Dabrafenib-resistant)
[7] = IGR37 Parental, 1μΜ, 72 h, in %
[8] = IGR37 Parental, 10μΜ, 72 h, in %
[9] = 501Mel Parental, 1μΜ, 72 h, in %
[10] = 501Mel Parental, 10μΜ, 72 h, in %

SMILES | Cell viability in kinase inhibitor library screening, 501Mel GP, 1μΜ ([1]; 501Mel GP, 1μΜ, 72 h, in %) | Cell viability in kinase inhibitor library screening, 501Mel GP, 10μΜ ([1]; 501Mel GP, 10μΜ, 72 h, in %) | Cell viability in kinase inhibitor library screening, A375 XP, 1μΜ ([2]; A375 XP, 1μΜ, 72 h) | Cell viability in kinase inhibitor library screening, A375 XP, 10μΜ ([2]; A375 XP, 10μΜ, 72 h) | Cell viability in kinase inhibitor library screening, A375 Parental, 10μΜ (A375 cells (parental); A375 Parental, 10μΜ, 72 h) | Cell viability in kinase inhibitor library screening, A375 Parental, 1μΜ (A375 cells (parental); A375 Parental, 1μΜ, 72 h) | Cell viability in kinase inhibitor library screening, 501Mel XP, 1μΜ ([3]; 501Mel XP, 1μΜ, 72 h, in %) | Cell viability in kinase inhibitor library screening, 501Mel XP, 10μΜ ([3]; 501Mel XP, 10μΜ, 72 h, in %) | Cell viability in kinase inhibitor library screening, IGR37 Parental, 1μΜ (IGR37 cells (parental); [7]) | Cell viability in kinase inhibitor library screening, IGR37 Parental, 10μΜ (IGR37 cells (parental); [8]) | Cell viability in kinase inhibitor library screening, IGR37 XP, 10μΜ ([4]; IGR37 XP, 10μΜ, 72 h) [%] | Cell viability in kinase inhibitor library screening, IGR37 XP, 1μΜ ([4]; IGR37 XP, 1μΜ, 72 h, in %) | Cell viability in kinase inhibitor library screening, 501Mel Parental, 1μΜ (501Mel cells (parental); [9]) | Cell viability in kinase inhibitor library screening, 501Mel Parental, 10μΜ (501Mel cells (parental); [10]) | Cell viability in kinase inhibitor library screening, A375 GP, 1μΜ ([5]; A375 GP, 1μΜ, 72 h) | Cell viability in kinase inhibitor library screening, A375 GP, 10μΜ ([5]; A375 GP, 10μΜ, 72 h) | Cell viability in kinase inhibitor library screening, IGR37 GP, 10μΜ ([6]; IGR37 GP, 10μΜ, 72 h) [%] | Cell viability in kinase inhibitor library screening, IGR37 GP, 1μΜ ([6]; IGR37 GP, 1μΜ, 72 h, in %) | further results
CC[C@@H]1C(=O)N(C)c2cnc(Nc3ccc(C(=O)NC4CCN(C)CC4)cc3OC)nc2N1C1CCCC1 [BI 2536] | 52.3 | 0.263 | 42.2 | 8.5 | 30.1 | 31.0 | 29.2 | -0.237 | 71.6 | 1.3 | 1.5 | 76.3 | 77.3 | 1.6 | 31.1 | 15.5 | 2.8 | 82.9 | 
COC(=O)c1ccc2c(c1)NC(=O)/C2=C(\Nc1ccc(N(C)C(=O)CN2CCN(C)CC2)cc1)c1ccccc1 [BIBF1120 (Vargatef)] |  |  |  |  |  |  |  |  |  |  |  |  |  |  |  |  |  |  | cell viability (kinase inhibitor library screening) ([1]; 501Mel GP, 1μΜ, in %): 90.5; cell viability (kinase inhibitor library screening) ([1]; 501Mel GP, 10μΜ, in %): -0.1; cell viability (kinase inhibitor library screening) ([2]; A375 XP, 1μΜ, in %): 103.7; cell viability (kinase inhibitor library screening) ([2]; A375 XP, 10μΜ, in %): 1.7; cell viability (kinase inhibitor library screening) (A375 cells (parental); A375 Parental, 1μΜ, in %): 104.6; cell viability (kinase inhibitor library screening) (A375 cells (parental); A375 Parental, 10μΜ, in %): 2.3; cell viability (kinase inhibitor library screening) ([3]; 501Mel XP, 1μΜ, in %): 90.7; cell viability (kinase inhibitor library screening) ([3]; 501Mel XP, 10μΜ, in %): -0.28; cell viability (kinase inhibitor library screening) (IGR37 cells (parental); IGR37 Parental, 10μΜ, in %): 0.645; cell viability (kinase inhibitor library screening) ([4]; IGR37 XP, 1μΜ, in %): 100.3; cell viability (kinase inhibitor library screening) ([4]; IGR37 XP, 10μΜ, in %): 1.9; cell viability (kinase inhibitor library screening) (501Mel cells (parental); 501Mel Parental, 1μΜ, in %): 103.8; cell viability (kinase inhibitor library screening) (501Mel cells (parental); 501Mel Parental, 10μΜ, in %): 0.6; cell viability (kinase inhibitor library screening) ([5]; A375 GP, 10μΜ, in %): 1.1; cell viability (kinase inhibitor library screening) ([6]; IGR37 GP, 1μΜ, in %): 97.0; cell viability (kinase inhibitor library screening) ([6]; IGR37 GP, 10μΜ, in %): 1.4
Cc1ccc(-n2nc(C(C)(C)C)cc2NC(=O)Nc2ccc(OCCN3CCOCC3)c3ccccc23)cc1 [BIRB 796 (Doramapimod)] | 105.5 | 94.6 |  | 85.3 | 86.4 | 99.9 | 98.8 | 86.9 |  | 97.2 | 71.3 | 94.7 | 96.5 | 84.9 | 103.9 | 76.2 | 78.5 | 89.9 | 
CN(C)Cc1cccc(N/C(=C2\C(=O)Nc3cc(C(N)=O)ccc32)c2ccccc2)c1 [BIX 02188] |  |  |  |  |  |  |  |  |  |  |  |  |  |  |  |  |  |  | viability at 1 µM ([1]; Homo sapiens, 72 h, read-out: cell viability, 501Mel GP, 1μΜ): 104%; viability at 10 µM ([1]; Homo sapiens, 72 h, read-out: cell viability, 501Mel GP, 10μΜ): 96.3%; viability at 1 µM ([2]; Homo sapiens, A-375, 72 h, read-out: cell viability, A375 XP, 1μΜ): 103%; viability at 10 µM ([2]; Homo sapiens, A-375, 72 h, read-out: cell viability, A375 XP, 10μΜ): 98.5%; viability at 1 µM (A375 cells (parental); Homo sapiens, A-375, 72 h, read-out: cell viability, A375 Parental, 1μΜ): 103%; viability at 10 µM (A375 cells (parental); Homo sapiens, A-375, 72 h, read-out: cell viability, A375 Parental, 10μΜ): 95.5%; viability at 1 µM ([3]; Homo sapiens, 72 h, read-out: cell viability, 501Mel XP, 1μΜ): 96.7%; viability at 10 µM ([3]; Homo sapiens, 72 h, read-out: cell viability, 501Mel XP, 10μΜ): 86.6%; viability at 1 µM (IGR37 cells (parental); Homo sapiens, IGR-37, 72 h, read-out: cell viability, IGR37 Parental, 1μΜ): 99.2%; viability at 10 µM (IGR37 cells (parental); Homo sapiens, IGR-37, 72 h, read-out: cell viability, IGR37 Parental, 10μΜ): 109%; viability at 1 µM ([4]; Homo sapiens, IGR-37, 72 h, read-out: cell viability, IGR37 XP, 1μΜ): 107%; viability at 10 µM ([4]; Homo sapiens, IGR-37, 72 h, read-out: cell viability, IGR37 XP, 10μΜ): 71.5%; viability at 1 µM (501Mel cells (parental); Homo sapiens, 72 h, read-out: cell viability, 501Mel Parental, 1μΜ): 95.5%; viability at 10 µM (501Mel cells (parental); Homo sapiens, 72 h, read-out: cell viability, 501Mel Parental, 10μΜ): 91.7%; viability at 1 µM ([5]; Homo sapiens, A-375, 72 h, read-out: cell viability, A375 GP, 1μΜ): 103%; viability at 10 µM ([5]; Homo sapiens, A-375, 72 h, read-out: cell viability, A375 GP, 10μΜ): 85.4%; viability at 1 µM ([6]; Homo sapiens, IGR-37, 72 h, read-out: cell viability, IGR37 GP, 1μΜ): 91%; viability at 10 µM ([6]; Homo sapiens, IGR-37, 72 h, read-out: cell viability, IGR37 GP, 10μΜ): 93.3%
CN(C)Cc1cccc(N/C(=C2\C(=O)Nc3cc(C(=O)N(C)C)ccc32)c2ccccc2)c1 [BIX 02189] |  |  |  |  |  |  |  |  |  |  |  |  |  |  |  |  |  |  | cell viability, 501Mel GP, 10μΜ ([1]; 501Mel GP, 10μΜ, 72 h, in %): 90.2; cell viability, A375 XP, 1μΜ ([2]; A375 XP, 1μΜ, 72 h, in %): 99.2; cell viability, A375 XP, 10μΜ ([2]; A375 XP, 10μΜ, 72 h, in %): 88.6; cell viability, A375 Parental, 10μΜ (A375 cells (parental); A375 Parental, 10μΜ, 72 h, in %): 86.5; cell viability, 501Mel XP, 1μΜ ([3]; 501Mel XP, 1μΜ, 72 h, in %): 98.8; cell viability, 501Mel XP, 10μΜ ([3]; 501Mel XP, 10μΜ, 72 h, in %): 82.6; cell viability, IGR37 Parental, 1μΜ (IGR37 cells (parental); [7]): 100.1; cell viability, IGR37 XP, 10μΜ ([4]; IGR37 XP, 10μΜ, 72 h): 54.9%; cell viability, IGR37 XP, 1μΜ ([4]; IGR37 XP, 1μΜ, 72 h, in %): 96.6; cell viability, 501Mel Parental, 1μΜ (501Mel cells (parental); [9]): 89.4; cell viability, 501Mel Parental, 10μΜ (501Mel cells (parental); [10]): 89.0; cell viability, A375 GP, 1μΜ ([5]; A375 GP, 1μΜ, 72 h, in %): 99.5; cell viability, A375 GP, 10μΜ ([5]; A375 GP, 10μΜ, 72 h, in %): 79.8; cell viability, IGR37 GP, 10μΜ ([6]; IGR37 GP, 10μΜ, 72 h): 85.5%; cell viability, IGR37 GP, 1μΜ ([6]; IGR37 GP, 1μΜ, 72 h, in %): 92.6
Nc1cc(C(F)(F)F)c(-c2cc(N3CCOCC3)nc(N3CCOCC3)n2)cn1 [BKM120 (Buparlisib)] | 60.8 | 9.6 | 70.4 | 10.0 | 9.8 | 67.0 | 54.8 | 3.6 | 91.7 | 30.3 | 7.4 | 78.7 | 71.1 | 10.8 | 59.6 | 7.7 | 20.9 | 82.3 | 
